Five compounds from patent US20160009727A1, “SA[…] PP2C INHIBITORS FOR CANCER TREATMENT” (Lixte Biotechnology, Inc., priority 2013, published 2016) can be followed below.

pIC50: −log10 of the molar value. Where two headings read alike, the source gives them in different places.

One series deals with A549 (lung carcinoma). The series is described as follows: A549 WST assay (cell growth / cell viability). In kind it is cell-based, human. As to conditions: for pIC50: Homo sapiens; for effect on cell growth and cell viability of A549: A549 in vitro, result in words.
In a further series the test system is U87MG (glioblastoma). The series is described as follows: U-87 MG WST assay (cell growth / cell viability). The series is classed as cell-based, human. As to conditions: for pIC50: Homo sapiens; for effect on cell growth and cell viability of U87MG: U87MG in vitro, result in words.
[1] abbreviates: A549 (lung carcinoma), summary, FIG. 1 / Discussion, read-out: IC50, inhibition of growth in vitro of A549.
Setting [2] is: first A549 WST assay, FIG. 2, read-out: IC50, first A549 WST assay.
Setting [3] is: second A549 WST assay, FIG. 3, read-out: IC50, second A549 WST assay.
[4] abbreviates: U-87 MG, U87MG (glioblastoma), summary, FIG. 1 / Discussion, read-out: IC50, inhibition of growth in vitro of U87MG.
The mark [5] stands for this setting: first U-87 MG WST assay, FIG. 4, read-out: IC50, first U-87 MG WST assay.
[6] abbreviates: second U-87 MG WST assay, FIG. 5, read-out: IC50, second U-87 MG WST assay.
The mark [7] stands for this setting: listed as N-ethyl derivative of sanguinarine.

Compound `c1c2c(cc3c1OCO3)-c1ncc3c4c(ccc3c1CC2)OCO4` [Compound 14, 11,12-Dihydro-2,3,7,8-bismethylenedioxybenzo[c]phenanthridine] returned a melting point of 246 to 247 °C. Further, the pIC50 in the series with A549 (lung carcinoma) (setting [1]) was < 5.00. Besides, the pIC50 with A549 (lung carcinoma) (setting [2]) was < 5.00. In the series on A549 (lung carcinoma) (setting [3]), the pIC50 is < 5.00. The negative-log IC50 (pIC50) in the series on U87MG (glioblastoma) (setting [4]) was < 5.00. Besides, the negative-log IC50 (pIC50) in the series on U87MG (glioblastoma) (setting [5]) is < 5.00. For the same compound, the pIC50 with U87MG (glioblastoma) (setting [6]) was < 5.00.
`c1cc2c(cnc3c4cc5c(cc4ccc23)OCO5)c2c1OCO2` [Compound 15, 2,3,7,8-bismethylene-dioxybenzo[c]-phenanthridine] had a melting point of 270 to 272 °C. Also, in the series with A549 (lung carcinoma) (setting [1]), the pIC50 was < 5.00. The negative-log IC50 (pIC50) with A549 (lung carcinoma) (setting [2]) is < 5.00. Further, the pIC50 with A549 (lung carcinoma) (setting [3]) is < 5.00. Also, the pIC50 in the series with U87MG (glioblastoma) (setting [4]) was < 5.00. Further, the negative-log IC50 (pIC50) in the series with U87MG (glioblastoma) (setting [5]) is < 5.00. Further, the negative logarithm of the IC50 (pIC50) in the series with U87MG (glioblastoma) (setting [6]) is < 5.00.
Regarding `CC[n+]1cc2c3c(ccc2c2ccc4cc5c(cc4c21)OCO5)OCO3.[Cl-]` [Compound 17, N-Ethyl Derivative of Sanguinarine], the melting point was in the range of 258 to 259 °C. Moreover, the “effect on cell growth and cell viability of A549” value in the series with A549 (lung carcinoma) is “inhibits cell growth and reduces cell viability”. The “effect on cell growth and cell viability of A549” value in the series with A549 (lung carcinoma) (setting [7]) is on record as “inhibited cell growth”. The negative-log IC50 (pIC50) in the series on A549 (lung carcinoma) (setting [1]) is ~5.80. The negative logarithm of the IC50 (pIC50) in the series with A549 (lung carcinoma) (setting [2]) is ~5.80. For the same compound, in the series on A549 (lung carcinoma) (setting [3]), the negative-log IC50 (pIC50) is ~5.80. In addition, the negative logarithm of the IC50 (pIC50) in the series with U87MG (glioblastoma) (setting [4]) is ~5.48. For the same compound, the pIC50 with U87MG (glioblastoma) (setting [5]) was ~5.48. In addition, the pIC50 in the series on U87MG (glioblastoma) (setting [6]) is ~5.48. In addition, the “effect on cell growth and cell viability of U87MG” value in the series with U87MG (glioblastoma) is “inhibits cell growth and reduces cell viability”. Besides, the “effect on cell growth and cell viability of U87MG” value in the series with U87MG (glioblastoma) (setting [7]) is “inhibited cell growth”.
Take `CC[C@@]1(O)C(=O)OCc2c1cc1n(c2=O)Cc2cc3c(CN(C)C)c(O)ccc3nc2-1` [Topotecan, reference compound]: the pIC50 in the series on A549 (lung carcinoma) (setting [1]) is 6.70; in the series on A549 (lung carcinoma) (setting [2]), ~6.70; in the series with A549 (lung carcinoma) (setting [3]), ~6.70; in the series on U87MG (glioblastoma) (setting [4]), 6.52; with U87MG (glioblastoma) (setting [5]), ~6.52; in the series with U87MG (glioblastoma) (setting [6]), ~6.52.
As to `C[n+]1cc2c3c(ccc2c2ccc4cc5c(cc4c21)OCO5)OCO3` [sanguinarine, 13-methyl-[1,3]benzodioxolo[5,6-c]-1,3-dioxolo[4,5-i]phenanthridinium, reference compound], the pIC50 in the series on A549 (lung carcinoma) (setting [1]) was 6.10; in the series with A549 (lung carcinoma) (setting [2]), 6.10; with A549 (lung carcinoma) (setting [3]) it was 6.10; with U87MG (glioblastoma) (setting [4]), 5.70; in the series on U87MG (glioblastoma) (setting [5]) it was 5.70; in the series with U87MG (glioblastoma) (setting [6]), 5.70.
